Assay results taken from PubChem BioAssay (NCI).
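Exposure lasted 48 hours, with cells grown in 96-well plates and compounds tested at five concentrations. GI50 is the concentration that inhibits growth by half. The concentration for full growth arrest is given as TGI.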

How the values were obtained:
Experiment in all cases: NCI-60 cell line screen, 48 h
[1] = test system: HS 578T breast
[2] = test system: HT29 colon
[3] = test system: A549 NSCLC
[4] = test system: RPMI-8226 leukemia
[5] = test system: RXF 393 renal
[6] = test system: SR leukemia
[7] = test system: NCI-H522 lung
[8] = test system: NCI-H460 lung
[9] = test system: SNB-75 CNS
[10] = test system: IGROV1 ovarian
[11] = test system: T-47D breast
[12] = test system: NCI-H226 lung
[13] = test system: SK-MEL-5 melanoma
[14] = test system: HCC-2998 colon
[15] = test system: A498 renal
[16] = test system: ACHN renal
[17] = test system: HCT-15 colon
[18] = test system: SN12C renal
[19] = test system: SK-MEL-28 melanoma
[20] = test system: BT-549 breast
[21] = test system: UO-31 renal
[22] = test system: UACC-257 melanoma
[23] = test system: OVCAR-4 ovarian
[24] = test system: EKVX NSCLC
[25] = test system: MDA-MB-231 breast
[26] = test system: SF-295 CNS
[27] = test system: HCT-116 colon
[28] = test system: MOLT-4 leukemia
[29] = test system: MDA-MB-435
[30] = test system: NCI/ADR-RES ovarian
[31] = test system: SK-MEL-2 melanoma
[32] = test system: MCF7 breast
[33] = test system: COLO 205 colon
[34] = test system: PC-3 prostate
[35] = test system: SK-OV-3 ovarian
[36] = test system: SNB-19 CNS
[37] = test system: CCRF-CEM leukemia
[38] = test system: SF-268 CNS
[39] = test system: LOX IMVI melanoma
[40] = test system: NCI-H23 lung
[41] = test system: HOP-92 NSCLC
[42] = test system: OVCAR-8 ovarian
[43] = test system: CAKI-1 renal
[44] = test system: 786-0 renal
[45] = test system: U251 CNS
[46] = test system: OVCAR-3 ovarian
[47] = test system: DU-145 prostate
[48] = test system: M14 melanoma
[49] = test system: OVCAR-5 ovarian
[50] = test system: KM12 colon
[51] = test system: TK-10 renal
[52] = test system: SW-620 colon
[53] = test system: HOP-62 NSCLC

For `O=C(c1ccc(Nc2nccc(NCCCCNc3ccnc4cc(Cl)ccc34)n2)cc1)N1CCCCC1`, the GI50 [1] was 1800 nM, the TGI [1] was 4620 nM and the GI50 [2] was 1310 nM. It also gave a TGI [2] of 6570 nM, a GI50 [3] of 1300 nM and a TGI [3] of 11900 nM. For the same compound, the GI50 [4] was 999 nM, the TGI [4] was 4440 nM and the GI50 [5] was 1330 nM. The TGI [5] was 2820 nM, the GI50 [6] was 219 nM and the TGI [6] was 1500 nM. It also gave a GI50 [7] of 2220 nM, a TGI [7] of 4890 nM and a GI50 [8] of 475 nM. For the same compound, the TGI [8] was 2980 nM, the GI50 [9] was 1580 nM and the TGI [9] was 3350 nM. The GI50 [10] was 2830 nM, the TGI [10] was 9080 nM and the GI50 [11] was 2080 nM. It also gave a TGI [11] of 5600 nM, a GI50 [12] of 3590 nM and a TGI [12] of 13700 nM. The GI50 [13] was 1610 nM, the TGI [13] was 2980 nM and the GI50 [14] was 1910 nM. The TGI [14] was 5420 nM, the GI50 [15] was 674 nM and the TGI [15] was 6220 nM. It also gave a GI50 [16] of 3320 nM, a TGI [16] of 11300 nM and a GI50 [17] of 1690 nM. The TGI [17] was 6430 nM, the GI50 [18] was 2380 nM and the TGI [18] was 9290 nM. It also gave a GI50 [19] of 2040 nM, a TGI [19] of 4670 nM and a GI50 [20] of 1750 nM. For the same compound, the TGI [20] was 3420 nM, the GI50 [21] was 1690 nM and the TGI [21] was 3790 nM. It also gave a GI50 [22] of 1750 nM, a TGI [22] of 3340 nM and a GI50 [23] of 1950 nM. It also gave a TGI [23] of 7520 nM, a GI50 [24] of 3860 nM and a TGI [24] of 19800 nM. It also gave a GI50 [25] of 1860 nM, a TGI [25] of 4970 nM and a GI50 [26] of 1540 nM. For the same compound, the TGI [26] was 3330 nM, the GI50 [27] was 1010 nM and the TGI [27] was 2420 nM. For the same compound, the GI50 [28] was 1740 nM, the TGI [28] was 5990 nM and the GI50 [29] was 1700 nM. The TGI [29] was 3890 nM, the GI50 [30] was 12600 nM and the TGI [30] was > 100000 nM. For the same compound, the GI50 [31] was 2080 nM, the TGI [31] was 4030 nM and the GI50 [32] was 1830 nM. It also gave a TGI [32] of 7640 nM, a GI50 [33] of 1520 nM and a TGI [33] of 3250 nM. The GI50 [34] was 955 nM, the TGI [34] was 7890 nM and the GI50 [35] was 5450 nM. For the same compound, the TGI [35] was 18000 nM, the GI50 [36] was 3890 nM and the TGI [36] was 21100 nM. The GI50 [37] was 1480 nM, the TGI [37] was > 100000 nM and the GI50 [38] was 2360 nM. The TGI [38] was 8310 nM, the GI50 [39] was 971 nM and the TGI [39] was 2330 nM. For the same compound, the GI50 [40] was 2950 nM, the TGI [40] was 15700 nM and the GI50 [41] was 1520 nM. The TGI [41] was 3950 nM, the GI50 [42] was 2630 nM and the TGI [42] was 8740 nM. The GI50 [43] was 2770 nM, the TGI [43] was 8840 nM and the GI50 [44] was 1460 nM. It also gave a TGI [44] of 2820 nM, a GI50 [45] of 1530 nM and a TGI [45] of 3380 nM. The GI50 [46] was 1920 nM, the TGI [46] was 4630 nM and the GI50 [47] was 3530 nM. The TGI [47] was 14300 nM, the GI50 [48] was 1710 nM and the TGI [48] was 3430 nM. It also gave a GI50 [49] of 4320 nM, a TGI [49] of 25900 nM and a GI50 [50] of 2940 nM. For the same compound, the TGI [50] was 11000 nM, the GI50 [51] was 2160 nM and the TGI [51] was 4830 nM. The GI50 [52] was 589 nM, the TGI [52] was 2170 nM and the GI50 [53] was 2240 nM. The TGI [53] was 6020 nM.
